Patent publication US20080292619A1, “Pharmaceutical Composition Containing Meltrin Antagonist” (MOCHIDA PHARMACEUTICAL CO., LTD., priority 2004, published 2008)
In the oligonucleotide strings, read from the 5' end, every base follows the letter of its sugar. An asterisk marks phosphorothioate; unmarked linkages are phosphodiester. Other units and linkages are bracketed, terminal groups are in braces. A string of capitals states the bases alone. d = 2'-deoxy (DNA)

Legend:
[1] = tested on: human preadipocyte; assay: Adipocyte proliferation and differentiation, neutral fat accumulation (Adipo Red); format: cell-based; conditions: antibody final concentration 5 μL/mL; 15 days; AdipoRed
Protocol: The differentiation medium was prepared by adding supplement kit PGM SingleQuots, #PT-9500, Lot.08101163 (Sanko Junyaku Co., Ltd.) to 100 mL of growth medium. 50 μL of the supernatant was removed from the 96 well plate prepared in Example 12, and 50 μL of the siRNA or the antisense oligonucleotide prepared in the differentiation medium was added, and incubation was conducted in a CO2 incubator for 5 days to 15 days.
The amount of neutral fat accumulated in the adipocyte was determined by fluorometry using Adipo Red stain.
After taking the 96 well plate out of the CO2 incubator, the plate was allowed to stand until it cooled to room temperature. The plate was centrifuged at 300 g (1200 rpm) for 10 minutes at room temperature to remove the medium. Next, the plate was gently washed with 200 μL/well of PBS (Sigma), and 200 μL/well of PBS was added to the well.
Next, 5 μL/well of Adipo Red Assay Reagent (Adipo Red, Cat. #PT-7009, Lot.3F0497, A Cambrex Company) was added, and the plate was allowed to stand at room temperature for at least 10 minutes to thereby stain the neutral fat that had accumulated in the adipocyte. The fluorescence intensity was measured in a fluorometer at an excitation wavelength of 485 nm and an emission wavelength of 535 nm to thereby determine the fat accumulation.
According to the method of Example 15, M82463 was added to the human preadipocyte incubation system at a concentration of 0.3 to 10 μg/mL so that the final concentration of the DMSO was 0.2%. As a control, a group having only the DMSO added to a final concentration of 0.2% was used.
After preparation of the antibody to the concentration of 0.100 mg/mL with physiological saline, 9 volumes of adipocyte differentiation medium was added to 1 volume of the antibody solution, and the solution was sterilized by filtering through a filter having a diameter of 0.22 μm (MILLEX-GV 0.22 μm Filter unit, 3slgv013SL, Lot. R2NN83622, MILLIPORE). […]

[2] = tested on: human meltrin α RNA; assay: Suppression of human meltrin α expression by antisense compound in RD cell (real time PCR); format: cell-based; conditions: 50 nM; RD cell
Summary of the method: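 RD cells transfected with heat-denatured antisense oligodeoxynucleotide plus Lipofectin in Opti-MEM for 4 h at 37° C, then cultured 18 h. Meltrin α RNA quantified by TaqMan RT-PCR against plasmid standard curve, GAPDH-corrected; suppression vs untreated cells, rated +/++/+++ for ≥30/50/70%.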

Substance: 2 (dC*dT*dG*dG*dT*dT*dA*dA*dT*dG*dG*dT*dT*dC*dA*dC*dA*dT*dC*dT) [compound 2]
- Suppressive effect [1]: ++ (suppression by 50% or higher)
- Supression of expression, 50 nM [2]: ++ (“++” when the suppression rate was at least 50%)
